Measurements from patent US9618507B2, “Methods of treating rheumatoid arthritis” (Betanien Hospital, priority 2014, dated 2017).
Marks after values point to notes of the source that are not given here. Where a SMILES comes first, the peptide text is derived from it. [ ]: non-standard residue; d: D form. dPhe(4-Cl) = N[C@H](Cc1ccc(Cl)cc1)C(=O)O; d2Nal = N[C@H](Cc1ccc2ccccc2c1)C(=O)O; dCit = NC(=O)NCCC[C@@H](N)C(=O)O; d3Pal = N[C@H](Cc1cccnc1)C(=O)O

Experiments:
TNF-α [1] = assay: Example 1: serum TNF-α, high sensitivity bead-based fluorescence immunoassay; assay type: in vivo, human; conditions: by day 5
Description: Ethical committee approval was obtained. […] Safety and efficacy visits, with blood sampling, were between 0730 and 0930 h on days 1 (baseline), 2, 3, 4, 5 (visit 5a), 10, and 15. There was an additional visit (visit 5b) between 1930 and 2130 h when maximum GnRH suppression was anticipated.
TNF-α was measured using a high sensitivity bead-based fluorescence immunoassay (Luminex Inc., Austin, Tex. USA) with multiplex technology according to the manufacturers' instructions. […] Samples were assayed together within the same microplate on the same day. The assay sensitivity for TNF-α was 0.5 pg/mL. Due to its skewed distribution, the statistical analysis gives both the log and relative change (%) of TNF-α from baseline.

CRP, ESR = conditions: all patients
Description: Ethical committee approval was obtained. A blinded independent committee, the Oslo University Hospital Data Monitoring Committee, regularly reviewed source documents against case record forms. Safety and efficacy visits, with blood sampling, were between 0730 and 0930 h on days 1 (baseline), 2, 3, 4, 5 (visit 5a), 10, and 15. There was an additional visit (visit 5b) between 1930 and 2130 h when maximum GnRH suppression was anticipated. Using computer-generated allocation, patients were randomly assigned 1:1 to cetrorelix (5 mg/day s.c. on days 1 and 2, 3 mg/day on days 3-5) or corresponding volumes of placebo. The cetrorelix doses were chosen to achieve rapid reductions in GnRH, LH, a surrogate marker for GnRH, and FSH. TNF-α was measured using multiplex technology with a high sensitivity (0.5 pg/mL) assay.
The predefined primary end-point was the baseline adjusted between-group difference in DAS28-CRP by visit 5b. Predefined secondary end-points included the baseline adjusted between-group difference inTNF-α, ACR20/50/70 responses, European League Against Rheumatism (EULAR) responses, DAS28-CRP <2.6 and ≦3.2, and adverse events. Continuous end-points were assessed with regression using day 5 as the response variable, and treatment and baseline measurement as covariates (ANCOVA). No adjustments for multiple analyses were made because of the highly correlated variables. Statistical tests were twosided (α ¼0.05) using Stat12/StatXact9, and performed by an offsite statistician who received the locked database from the blinded investigators, and the allocation key from the offsite central office.

TNF-α [2] = assay: Example 2: serum cytokine, multiplex high-sensitivity assay, TNF-α; assay type: in vivo, human; conditions: high gonadotropin patients
Description: (§1) The protocol-specified primary and secondary intention-to-treat endpoints of the original AGRA trial were analyzed in these post hoc analyses. The primary endpoint was the baseline-adjusted between-group difference in DAS28-CRP (Wells et al., supra) by day 5b. Secondary endpoints included the baseline-adjusted between-group difference in cytokines, proportions of patients achieving at least a 20%, 50%, and 70% improvement on the ACR scale (Felson D T, et al., Arthritis Rheum 1995; 38:727-35), categorical DAS28-CRP (European League Against […] [EULAR]) responses (Wells et al., supra; van Gestel A M, et al., Arthritis Rheum 1996; 39:34-40), DAS28-CRP≦3.2 (Wells et al., supra), DAS28-CRP<2.6 (Wells et al., supra), and the incidence of adverse events. Protocol-specified DAS28 outcomes were preferentially CRP-based rather than erythrocyte sedimentation rate (ESR)-based, as CRP usually changes before ESR. […] Multiplex technology (Luminex Inc., Austin, Tex.) measured these serum cytokines using high-sensitivity assays (sensitivities <0.5 pg/mL, allowing the detection of very low concentrations of cytokines) and identical lots of critical reagent of negligible cross-reactivity <2%, according to manufacturers' instructions (Bio-Rad, Hercules, Calif.). […] To enable intention-to-treat analyses with all patients N=53, non-detectable values were set at the lower limit of detection for cytokines, as is common for CRP values.
The original power calculation is previously reported (Kass A S, et al., Scand J Rheumatol Epub ahead of print 1 Nov. 2013). Baseline-adjusted between-group differences for all continuous endpoints were assessed with the use of analysis-of-covariance using outcome measurements at predefined time points as response variables, and treatment and baseline measurements as covariates. Dichotomous endpoints were compared with the Pearson chi-square test or Suissa-Shuster exact unconditional test, depending on expected-value distribution (Lydersen S, et al., Stat Med 2009; 28:1159-75). […]

interleukin-1β = assay: Example 2: serum cytokine, multiplex high-sensitivity assay, interleukin-1β; assay type: in vivo, human; conditions: high gonadotropin patients
Description: as §1
(§2) The original power calculation is previously reported (Kass A S, et al., Scand J Rheumatol Epub ahead of print 1 Nov. 2013). Baseline-adjusted between-group differences for all continuous endpoints were assessed with the use of analysis-of-covariance using outcome measurements at predefined time points as response variables, and treatment and baseline measurements as covariates. Dichotomous endpoints were compared with the Pearson chi-square test or Suissa-Shuster exact unconditional test, depending on expected-value distribution (Lydersen S, et al., Stat Med 2009; 28:1159-75). No adjustments for multiple analyses were made, owing to highly correlated endpoints. Due to skewed distributions, between-group changes of natural log-transformed cytokine levels from baseline were compared.

interleukin-2 = assay: Example 2: serum cytokine, multiplex high-sensitivity assay, interleukin-2; assay type: in vivo, human; conditions: high gonadotropin patients
Description: as §1, §2

GnRH receptors = target: T1, GnRH receptors (Rattus norvegicus, UniProt P30969); conditions: rats; Rick F G, et al., Prostate 2011; cited from earlier work
T1 construct: through GnRH receptors in rats; host or cells: rats (in vivo)
T1 sequence (P30969 1-327): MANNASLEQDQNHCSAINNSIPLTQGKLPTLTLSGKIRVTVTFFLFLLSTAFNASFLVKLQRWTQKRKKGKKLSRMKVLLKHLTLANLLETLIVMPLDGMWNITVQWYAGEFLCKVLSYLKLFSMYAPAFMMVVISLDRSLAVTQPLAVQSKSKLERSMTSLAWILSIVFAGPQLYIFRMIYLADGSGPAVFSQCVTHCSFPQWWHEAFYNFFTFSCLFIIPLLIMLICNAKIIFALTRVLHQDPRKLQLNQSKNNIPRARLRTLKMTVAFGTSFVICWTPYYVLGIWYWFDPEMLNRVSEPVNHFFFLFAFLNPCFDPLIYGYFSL

myeloma cells = conditions: Wen J, et al., Mol Cancer Ther 2011; cited from earlier work

CC(=O)N[C@H](Cc1ccc2ccccc2c1)C(=O)N[C@H](Cc1ccc(Cl)cc1)C(=O)N[C@H](Cc1cccnc1)C(=O)N[C@@H](CO)C(=O)N[C@@H](Cc1ccc(O)cc1)C(=O)N[C@H](CCCNC(N)=O)C(=O)N[C@@H](CC(C)C)C(=O)N[C@@H](CCCNC(=N)N)C(=O)N1CCC[C@H]1C(=O)N[C@H](C)C(N)=O [cetrorelix] (Ac-[d2Nal][dPhe(4-Cl)][d3Pal]SY[dCit]LRP[dA]-NH2)
TNF-α reduction (change from baseline) (TNF-α [1]; all patients with detectable TNF-α, placebo −0.02): −0.58 log pg/mL | TNF-α between group difference vs placebo (TNF-α [1]; 95% CI 0.08-1.01, p 0.023): 0.55 log pg/mL | TNF-α percentage change from baseline (TNF-α [1]; placebo 11.1%): −28.2% | CRP levels after withdrawal of treatment (CRP, ESR; by day 15): remained lowered | CRP reduction compared to placebo (CRP, ESR; day 5, p 0.060): Non-significant reductions | ESR reduction compared to placebo (CRP, ESR; day 15, p 0.051): Non-significant reductions | TNF-α level, Final Day 15 (TNF-α [2]; N = 27, mean ± SD): 0.01 ± 2.1 log pg/mL | TNF-α Change from baseline by day 15 (TNF-α [2]; N = 27, placebo +0.02): −0.45 log pg/mL | TNF-α Baseline-Adjusted Between-Group Difference (TNF-α [2]; day 15, 95% CI (0.01, 0.96), P < 0.05): 0.49‡ log pg/mL | IL-1β level, Final Day 15 (interleukin-1β; N = 27, mean ± SD): −1.68 ± 1.4 log pg/mL | IL-1β Change from baseline by day 15 (interleukin-1β; N = 27, placebo +0.10): −0.20 log pg/mL | Interleukin-1β change compared with placebo (interleukin-1β; by day 15, P=0.034): significantly decreased | IL-1β Baseline-Adjusted Between-Group Difference (interleukin-1β; day 15, 95% CI (0.02, 0.59), P < 0.05): 0.30‡ log pg/mL | IL-2 level, Final Day 15 (interleukin-2; N = 27, mean ± SD): −3.39 ± 2.9 log pg/mL | IL-2 Change from baseline by day 15 (interleukin-2; N = 27, placebo +0.02): −0.42 log pg/mL | interleukin-2 change compared with placebo (interleukin-2; by day 15, P=0.088): decreased non-significantly | IL-2 Baseline-Adjusted Between-Group Difference (interleukin-2; day 15, 95% CI (−1.09, 0.08)): -0.51 log pg/mL | pro-inflammatory cytokine gene expression through GnRH receptors (GnRH receptors): directly decrease | pro-inflammatory cytokine gene expression through GnRH receptors (myeloma cells): directly decrease
